Values after ≈ are worked out from the molar mass of the structure shown. Read-outs that look alike come from different tables or passages of the source.
Key:
[1] = Mammalian cell cytotoxicity (CC50); type: cell-based; conditions: human, HeLa cells (ATCC CCL-2)
Protocol: (§1) The half-maximal cytotoxic concentration (CC50) of each compound against HeLa cells (ATCC CCL-2) was measured as previously described ([50]). Each assay comprised three technical replicates, and each assay was repeated at least once. The mean values for each biological replicate were averaged, and the CC50 was determined using a four-parameter nonlinear curve fitting algorithm (GraphPad Prism). The average of the CC50s from two biological replicates was calculated and reported.

HeLa cells (ATCC CCL-2) = experiment: Mammalian cell cytotoxicity (CC50); type: cell-based
Protocol: as §1

[2] = Liver microsome stability; type: in vitro ADME; conditions: mouse; murine liver microsomes, NADPH; read-out: MLMS (t1/2)
Protocol: To examine the potential for first-pass metabolism of analogs in the liver, the stability of analogs in the presence of liver microsome preparations (Eurofins Discovery for human, dog, and rat; Xenotech for mouse) was measured using the method of Kuhnz and […] ([52]). The amount of parent compound remaining after incubation with microsomes in the presence of NADPH over a 30-min time range was measured using a reverse-phase liquid chromatography/mass spectroscopy method that was customized for each compound. Half-lives were calculated using linear regression analysis of several time points.

CYP3A4 = target: T1, CYP3A4 (Homo sapiens, UniProt P08684); experiment: CYP450 inhibition; type: in vitro ADME; conditions: Human Cytochrome P450 kit (BD Gentest), read-out: Human CYP3A4 inhibition (%INH at 10 µM)
T1 construct: purchased BD Gentest Corp, Woburn, MA, USA
Protocol: Inhibition of the CYP450 enzyme CYP3A4 by each compound at a final concentration of 10 µM was measured using a commercially available Human Cytochrome P450 kit (BD Gentest Corp, Woburn, MA, USA) according to the manufacturer’s instructions.

P. variotii = experiment: microbe, parasite or virus in culture; type: cell-based; conditions: Paecilomyces variotii; strain MYA-3630
Apophysomyces spp. = experiment: CLSI-based microbroth dilution MIC, spectrum of activity; type: cell-based
Aspergillus niger = experiment: as above; type: cell-based
Fusarium spp. = experiment: as above; type: cell-based; conditions: solani and oxysporum
Scedosporium spp. = experiment: as above; type: cell-based
Aspergillus fumigatus [3] = experiment: Agar-based colony biofilm assay; type: cell-based; conditions: for inhibition at 0.58 µg/mL / inhibition at 1.16 µg/mL: Aspergillus fumigatus; for growth of parental wild-type strain in the presence of MBX-7591 (of untreated): concentration not given
[4] = tested on: A. fumigatus strain ATCC46645; experiment: Murine model of invasive pulmonary aspergillosis; type: in vivo, mouse
Protocol: Outbred wild-type CD-1 female mice at 20–24 g (Charles River Laboratory, Raleigh, NC, USA) were randomized and housed in autoclaved cages at ≤4 mice per cage with HEPA-filtered air and water. Mice were immunosuppressed by subcutaneous injection with triamcinolone acetonide (Kenalong-10, Bristol-Myer Squibb) at 40 mg/kg of body weight. Twenty-four hours after immune suppression, mice were intranasally inoculated with 2 × 10^6 live conidia (in 40 µL of sterile PBS) or PBS alone as a control. A. fumigatus strain ATCC46645 was grown on 1% GMM for 3 days at 37°C, conidia were collected in 0.01% Tween, and washed three times in sterile PBS. Immediately after fungal inoculation, mice were intraperitoneally (IP) injected with either vehicle (5% DMSO/10% PS80/25% HPBCDX 0.07% sodium acetate) or MBX-7591 at 10 mg/kg of body weight (5% DMSO/10% PS80/25% HPBCDX 0.07% sodium acetate). Mice were injected IP with a second dose of vehicle or MBX-7591 at 10 mg/kg of body weight 8 hours after the first dose of the drug. Mice were sacrificed 24 hours post-fungal challenge, lungs were excised from the chest cavity, rinsed in sterile PBS, and flash frozen for fungal burden analysis. Relative fungal burden was assessed through qPCR quantitation of A. fumigatus 18S rDNA as previously described ([38][–][40]).

Aspergillus fumigatus [5] = experiment: Colony recovery after CLSI MIC testing (fungicidal test); type: cell-based; conditions: at MIC (2.453 μg/ml) and 2X MIC (4.906 μg/ml)
Protocol: Perhaps consistent with these lipid profiling data, transmission electron microscopy images of MBX-7591-treated cells reveal a loss of cellular membrane integrity, a large increase in the electron translucent cell wall, and a significant increase in electron density in the cytoplasm (Fig. S1B). These TEM images are consistent with cell death upon MBX-7591 treatment.
115 Supplementary Figure 1. MBX-7591 pre-treatment induces cell death.
116 A) Biofilms grown for 12 hours with MBX-7591 pre-treatment (PT) are more susceptible to
117 subsequent 6-hour voriconazole (VCZ) treatment. MBX-7591 PT + VCZ biofilms show higher
118 sytox staining and nuclear collapse indicative of increased cell membrane permeability and cell
119 death. B) TEM image of cross section of Aspergillus fumigatus hyphae from 24-hour biofilms
120 grown in vehicle control or 0.588 μg/ml MBX-7591. MBX-7591 induces changes in the cell wall,
121 increased vacuolization and increased cytosolic density (black arrows). C) MBX-7591 reduces
CLSI assay done as described in methods and incubated for 48 hours at
124 37°C, 5%CO2. Subsequently 100 µL of untreated control, ½ MIC, MIC and 2X MIC wells were
125 plated onto GMM and incubated at 37°C, 5%CO2 for 48h. Representative images of fungal
126 growth of 2 independent biological replicates shown.

[6] = tested on: A. fumigatus CEA10 reference strain; experiment: MIC of HTS hits vs A. fumigatus CEA10, CLSI microbroth dilution, with or without 32 µg/mL fluconazole; conditions: for MIC: Aspergillus fumigatus

T1 sequence (P08684 whole entry): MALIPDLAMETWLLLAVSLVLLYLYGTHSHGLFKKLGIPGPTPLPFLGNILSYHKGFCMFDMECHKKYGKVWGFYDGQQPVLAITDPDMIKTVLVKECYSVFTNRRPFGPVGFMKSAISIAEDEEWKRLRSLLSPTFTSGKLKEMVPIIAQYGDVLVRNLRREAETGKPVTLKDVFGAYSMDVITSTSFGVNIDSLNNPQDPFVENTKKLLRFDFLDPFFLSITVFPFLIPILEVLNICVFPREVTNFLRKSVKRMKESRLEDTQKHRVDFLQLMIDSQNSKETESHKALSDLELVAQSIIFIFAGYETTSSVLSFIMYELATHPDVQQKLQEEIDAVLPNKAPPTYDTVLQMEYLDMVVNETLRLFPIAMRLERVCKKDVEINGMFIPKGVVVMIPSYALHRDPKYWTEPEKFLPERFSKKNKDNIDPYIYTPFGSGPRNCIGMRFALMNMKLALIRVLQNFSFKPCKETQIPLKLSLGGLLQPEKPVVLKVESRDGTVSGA

SMILES: O=C(c1ccsc1)N1CCC(Cc2ccc(COc3ccncc3)cc2)CC1 [MBX-7591]
- CC50 [1]: > 100 µM
- CC50 (HeLa cells (ATCC CCL-2)): ≥ 100 µM
- half-life [2]: 40 min
- inhibition at 10 µM (CYP3A4): 89%
- MIC (P. variotii): > 32 µg/mL
- MIC (Apophysomyces spp.; strain Apo1): 0.5 µg/mL (≈ 1.27 µM)
- MIC (Apophysomyces spp.; strain Apo2): 16 µg/mL (≈ 40.8 µM)
- MIC (Apophysomyces spp.; strain Apo3): 4 µg/mL (≈ 10.2 µM)
- MIC (Aspergillus niger; Aspergillus niger, strain AN1): > 32 µg/mL
- MIC UTHSC (Aspergillus niger; strain AN2): > 32 µg/mL
- MIC (Fusarium spp.): > 39.2 µg/mL
- MIC (Fusarium spp.; read-out: MIC UTHSC): > 32 µg/mL
- MIC (Scedosporium spp.; NIH: DI19-67, DI15-15, DI19-66, read-out: MIC UTHSC): > 32 µg/mL
- MIC (Scedosporium spp.; apiospermum (7D7), prolificans (7D8), JI 2018 "typical" (14E6)): > 39.2 µg/mL
- inhibition at 0.58 µg/mL (Aspergillus fumigatus [3]; AFS35, 0.58 μg/mL, read-out: growth inhibition): ~61%
- inhibition at 1.16 µg/mL (Aspergillus fumigatus [3]; AFS35, 1.16 μg/mL, read-out: growth inhibition): ~70%
- inhibition at 0.58 µg/mL (Aspergillus fumigatus [3]; phspA:atrR, 0.58 μg/mL, read-out: growth inhibition): ~9%
- inhibition at 1.16 µg/mL (Aspergillus fumigatus [3]; phspA:atrR, 1.16 μg/mL, read-out: growth inhibition): ~19%
- inhibition at 1.16 µg/mL (Aspergillus fumigatus [3]; read-out: growth inhibition, hspA-atrR;ΔsrbA, 1.16 µg/mL): ~81%
- inhibition at 0.58 µg/mL (Aspergillus fumigatus [3]; read-out: growth inhibition, ΔatrR, 0.58 μg/mL): ~69%
- inhibition at 1.16 µg/mL (Aspergillus fumigatus [3]; read-out: growth inhibition, ΔatrR, 1.16 μg/mL): ~86%
- inhibition at 0.58 µg/mL (Aspergillus fumigatus [3]; read-out: growth inhibition, ΔsrbA, 0.58 μg/mL): ~62%
- inhibition at 1.16 µg/mL (Aspergillus fumigatus [3]; read-out: growth inhibition, ΔsrbA, 1.16 μg/mL): ~72%
- inhibition at 1.16 µg/mL (Aspergillus fumigatus [3]; read-out: growth inhibition, ΔsrbAΔatrR, 1.16 µg/mL): ~92%
- growth of parental wild-type strain in the presence of MBX-7591 (of untreated) (Aspergillus fumigatus [3]; first of two values): ~ 67%
- growth of parental wild-type strain in the presence of MBX-7591 (of untreated) (Aspergillus fumigatus [3]; second of two values): ~ 89%
- host toxicity in the IPA murine model ([4]; 10 mg/kg IP, two doses): no host-associated toxicity
- lung fungal burden vs vehicle control (18S rDNA qPCR) ([4]; CD-1 mice, triamcinolone immunosuppressed, 10 mg/kg IP at 0 and 8 hours, lungs at 24 hours): over threefold decrease in fungal burden
- colony formation after 48 hours of treatment of conidia (Aspergillus fumigatus [5]): No colony-forming units were observed at or 2× the MIC
- MIC ([6]; read-out: MBX-7591 MIC vs A. fumigatus (+) FLC): 0.4 µM
- MIC ([6]; read-out: MBX-7591 MIC vs A. fumigatus (−) FLC): 1.2 µM
- MIC ([6]; read-out: MIC (+Flu)): 5 µM
- MIC ([6]; read-out: MIC (-Fluc)): 20 µM
- Fold MIC ([6]; MIC-FLC/MIC+FLC, Table S2): 4
- Ratio (MIC −FLC / MIC +FLC) ([6]; Table 1): 3

Reference: PMC11253624, “Unsaturated fatty acid perturbation combats emerging triazole antifungal resistance in the human fungal pathogen Aspergillus fumigatus” (mBio, 2024)
